According to patent US10066272B2, “Human homeobox gene ventx and macrophage terminal differentiation and activation, compositions and methods thereof” (priority 2011, dated 2018):

What was measured:
Assay type in all cases: cell-based, human
[1] = system: cytokine mRNA expression in macrophages; test: Effects of VentX knockdown on cytokine mRNA expression in macrophages (real-time PCR); design: unit not given here; conditions: macrophages transfected with siRNA; classical activation by LPS plus IFN-γ
Method: Macrophages were generated through incubation of freshly isolated monocytes with 100 ng/mL M-CSF for 4 days. These macrophages were then transfected with siGFP or siVentX, respectively, and further cultured in RPMI 1640 medium for additional 3 days. Thereafter, cells were exposed to 1 μg/mL LPS plus 20 ng/mL γ-IFN for 6 hours. (A) Surface staining of CD40, CD80, CD86 and HLA-DR and intracellular staining of TNF-α and IL1-β were analyzed by flow cytometry. (B) Secreted TNF-α, IL1-β and IL12p70 from culture supernatants were determined with ELISA kits. (C) Reactive oxygen species (ROS) from siGFP or siVentX transfected macrophages were analyzed with fluorescence microscope (left) and flow cytometry (middle). […] (D) Nitrate level from siGFP and siVentX transfected macrophages. Data represent mean+SD of three different experiments. (E) Phagocytosis of siGFP and siVentX transfected macrophage. Red histogram represents transfection with siGFP; green histogram represents transfection with siVentX. Left panel: cells were incubated on ice; right panel: cells were incubated at 37° C. (F) Effects of VentX knockdown on mixed lymphocyte reaction. Irradiated macrophages that had been transfected with siGFP or siVentX were utilized to stimulate allogenic naïve CD4 T cells proliferation. The proliferation rates were represented by counts per minute (CPM). […] Statistically significant difference (p<0.05) was observed when 4×10^2 or 2×10^3 cells were added.
(Martinez, et al. 2008 Front Biosci 13:453-461; Mosser, et al. 2008 Nat Rev Immunol 8:958-969.) To investigate whether VentX is required for classical activation of macrophages, a loss-of-function approach by knockdown of VentX was used.
Human primary monocytes were transfected using the Human Monocyte Nucleofector Kit (Lonza) according to the manufacturer's instructions. Briefly, 5×10^6monocytes were resuspended into 100 μl nucleofector solution with 0.5 nmol of either VentX siRNA (forward: 5′-[…]-3′ (SEQ ID NO:4); reverse: 5′-[…]-3′ (SEQ ID NO:5)) or non-effective GFP siRNA (forward: 5′-[…]-3′ (SEQ ID NO:6); 5′-reverse: […]-3′ (SEQ ID NO:7)) before electroporation with nucleofector II Device (Lonza). Cells were then immediately removed from the device and incubated overnight with 1 ml pre-warmed Human Monocyte Nucleofector Medium containing 2 mM glutamine and 10% FBS. Cells were then resuspended into complete RPMI medium and treated with appropriate cytokines to induce differentiation into macrophages. Similarly, macrophages derived from monocytes were transfected with Human Macrophage Nucleofector Kit (Lonza) following the manufacturer's instructions.
Total RNA was isolated by the TRIzol reagent, and an equal amount of RNA was used for first-strand cDNA synthesis with SuperScript III First-Strand Synthesis System (Invitrogen) according to the manufacturer's protocol. To amplify VentX cDNA with conventional PCR, AccuPrime™ Taq DNA polymerase system (Invitrogen) was used following the manufacturer's instructions. PCR products were separated on 2% agarose gels and stained with ethidium bromide. GAPDH was used as an internal control. Quantitative measurement of VentX and cytokines cDNA were performed with SYBR Green on a LightCycler® (480 Real-Time PCR System; Roche). The primers used are listed in the Sequence Listing (SEQ ID NOs: 24-109).

[2] = system: allogenic naive CD4+ T cells; test: Mixed lymphocyte reaction; conditions: irradiated transfected macrophages (FIG. 8F)
Method: (§1) Macrophages were generated through incubation of freshly isolated monocytes with 100 ng/mL M-CSF for 4 days. These macrophages were then transfected with siGFP or siVentX, respectively, and further cultured in RPMI 1640 medium for additional 3 days. Thereafter, cells were exposed to 1 μg/mL LPS plus 20 ng/mL γ-IFN for 6 hours. (A) Surface staining of CD40, CD80, CD86 and HLA-DR and intracellular staining of TNF-α and IL1-β were analyzed by flow cytometry. (B) Secreted TNF-α, IL1-β and IL12p70 from culture supernatants were determined with ELISA kits. (C) Reactive oxygen species (ROS) from siGFP or siVentX transfected macrophages were analyzed with fluorescence microscope (left) and flow cytometry (middle). […] (D) Nitrate level from siGFP and siVentX transfected macrophages. Data represent mean+SD of three different experiments. (E) Phagocytosis of siGFP and siVentX transfected macrophage. Red histogram represents transfection with siGFP; green histogram represents transfection with siVentX. Left panel: cells were incubated on ice; right panel: cells were incubated at 37° C. (F) Effects of VentX knockdown on mixed lymphocyte reaction. Irradiated macrophages that had been transfected with siGFP or siVentX were utilized to stimulate allogenic naïve CD4 T cells proliferation. The proliferation rates were represented by counts per minute (CPM). […]

[3] = system: cultured monocytes/macrophages; test: Phagocytosis assay with pHrodo S. aureus BioParticles
Method: (A) Left panel: Flow cytometry analysis of indicated surface markers in monocytes transfected with siGFP or siVentX, respectively; right panel: bar graphs show the mean+SD of at least three separate experiments. *p<0.05; **p<0.01. (B) Effects of VentX knockdown on macrophage viability. Monocytes were transfected with either siGFP or siVentX and subsequently exposed to 100 ng/mL M-CSF for 3 days. Cells were then harvested and stained with PI and Annexin V and analyzed by flow cytometry. (C) Effects of VentX knockdown on phagocytosis. Monocytes were transfected with siGFP or siVentX. Phagocytosis assays were carried out as described in materials and methods. […]
Macrophages were generated through incubation of freshly isolated monocytes with 100 ng/mL M-CSF for 4 days. […] (A) Surface staining of CD40, CD80, CD86 and HLA-DR and intracellular staining of TNF-α and IL1-β were analyzed by flow cytometry. (B) Secreted TNF-α, IL1-β and IL12p70 from culture supernatants were determined with ELISA kits. (C) Reactive oxygen species (ROS) from siGFP or siVentX transfected macrophages were analyzed with fluorescence microscope (left) and flow cytometry (middle). […]
Phagocytosis of cultured monocytes/macrophages or U937 cells were performed with pHrodo™ S. aureus BioParticles® conjugates from Invitrogen. […] After extensive washings, cellular phagocytosis of bioparticles was monitored by flow cytometry. […]

activated macrophages = test: Detection of reactive oxygen species (ROS) and nitric oxide (NO) in activated macrophages
Method: as §1, with “macrophage.” for “macrophage. Red histogram represents transfection with siGFP; green histogram represents transfection with siVentX. Left panel: cells were incubated on ice; right panel: cells were incubated at 37° C. (F) Effects of VentX knockdown on mixed lymphocyte reaction. Irradiated macrophages that had been transfected with siGFP or siVentX were utilized to stimulate allogenic naïve CD4 T cells proliferation. The proliferation rates were represented by counts per minute (CPM).”
The ROS level in activated macrophages was detected with Image-iT® LIVE Green Reactive Oxygen Species Detection Kit (Invitrogen) basically following the manufacturer's instructions except that the results were analyzed by both fluorescence microscope and flow cytometry. The NO level was determined by Griess Reagent Kit for Nitrite Determination (Invitrogen) following the protocol provided by the manufacturer.

Substance: siVentX: VentX siRNA, forward 5′-UUCAGAAUCGCCGCAUGAAACACAAACGG-3′ (SEQ ID NO:4), reverse SEQ ID NO:5 (antisense CCGUUUGUGUUUCAUGCGGCGAUUCUGAA; listed as RNA, chemistry not given here)
- IL1-β cytokine mRNA expression [1]: 21.93 ± 1.8
- IL6 cytokine mRNA expression [1]: 1.78 ± 0.14
- IL8 cytokine mRNA expression [1]: 172 ± 5.8
- IL12p35 cytokine mRNA expression [1]: 0.37 ± 0.14
- IL12p40 cytokine mRNA expression [1]: 0.61 ± 0.05
- M-SCSF cytokine mRNA expression [1]: 0.14 ± 0.01
- TNF-α cytokine mRNA expression [1]: 0.18 ± 0.01
- stimulation of allogeneic T cells proliferation [2]: less potent
- phagocytotic capability of transfected macrophages ([3]; macrophages (FIG. 8E)): much weaker
- phagocytotic activity of transfected monocytes ([3]; monocytes, in comparison with the control (FIG. 3C)): reduced phagocytotic activity
- reactive oxygen species produced (activated macrophages; transfected macrophages (FIG. 8C)): significantly less
- nitric oxide produced (activated macrophages; transfected macrophages (FIG. 8D)): significantly less
